In patent US6251899A, “Methoximinomethyloxadiazines” (Bayer Aktiengesellschaft, priority 1997, dated 2001) one finds chromatographic logP, pest or weed control and logP data, which are given here for 54 compounds.

Where two headings read alike, the source gives them in different places.

The nature of data set [1]: logP by HPLC (EEC Directive 79/831 Annex V. A8, gradient method, acetonitrile/0.1% aqueous phosphoric acid). Format: physicochemical. The protocol: *The logP values were determined in accordance with EEC Directive 79/831
Annex V. A8 by HPLC (gradient method, acetonitrile/0.1% aqueous phosphoric

The next data set deals with Plasmopara viticola. Description: Plasmopara test (grapevine)/protective. The following applies: 144 h.
The test system of the next data set is Venturia inaequalis. In words: Venturia test (apple)/protective. The following applies: 288 h.
Where [2] appears, read: read-out: Efficacy, grapevine, protective, 100 g/ha, 6 days after inoculation.
Setting [3] is: read-out: Efficacy, apple, protective, 10 g/ha, 12 days after inoculation.

Protocol for Plasmopara viticola: Solvent: 47 parts by weight of acetone
(§1) Emulsifier: 3 parts by weight of alkylaryl polyglycol ether
After the spray coating has dried on, the plants are inoculated with an aqueous spore suspension of Plasmopara viticola and then remain in an incubation cabin at approximately 20° C. and 100% relative atmospheric humidity for 1 day. The plants are subsequently placed in a greenhouse at approximately 21° C. and approximately 90% relative atmospheric humidity for 5 days. The plants are then moistened and placed in an incubation cabin for 1 day.
Evaluation is carried out 6 days after the inoculation.
Protocol for Venturia inaequalis: Solvent: 47 parts by weight of acetone
as §1
After the spray coating has dried on, the plants are inoculated with aqueous conidia suspension of the causative organism of apple scab Venturia inaequalis and then remain in an incubation cabin at approximately 20° C. and 100% relative atmospheric humidity for 1 day.
The plants are then placed in a greenhouse at approximately 21° C. and a relative atmospheric humidity of approximately 90%.
Evaluation is carried out 12 days after the inoculation.

As to `CON=C(C1=NOCCN1)c1ccccc1Oc1ncnc(Oc2cccc(Cl)c2Cl)c1F` [Example 1, 3-{1-[2-(4-<2,3-dichlorophenoxy>-5-fluoropyrimid-6-yloxy)-phenyl]-1-(methoximino)-methyl}-5,6-dihydro-4H-1,2,4-oxadiazine], the chromatographic logP (as a rule, a lipophilicity value derived from retention on a column) in data set [1] was 3.45. The pest or weed control at 100 g/ha in the data set on Plasmopara viticola (setting [2]) was ≥ 90%.

With `CON=C(C1=NOCCN1)c1ccccc1Oc1ncnc(Oc2cccc(Cl)c2C)c1F` [Example 2], in data set [1], the chromatographic logP is 3.52. The pest or weed control at 10 g/ha with Venturia inaequalis (setting [3]) is ≥ 90%. In the data set on Plasmopara viticola (setting [2]), the pest or weed control at 100 g/ha is ≥ 90%. As to `CON=C(C1=NOCCN1)c1ccccc1Oc1ncnc(Oc2ccccc2Cl)c1F` [Example 3], in data set [1], the chromatographic logP was 3.02. Moreover, the figures for the pest or weed control at 10 g/ha in the data set on Venturia inaequalis (read-out: Efficacy) and with Venturia inaequalis (setting [3]) were 92% and ≥ 90%, respectively. Also, the pest or weed control at 100 g/ha in the data set with Plasmopara viticola (setting [2]) is ≥ 90%. For the compound `CON=C(C1=NOCCN1)c1ccccc1Oc1ncnc(Oc2cccc(C)c2C)c1F` [Example 4], the chromatographic logP in data set [1] was found to be 3.29. The pest or weed control at 10 g/ha in the data set with Venturia inaequalis (read-out: Efficacy) is 95%; in the data set on Venturia inaequalis (setting [3]), ≥ 90%. Besides, in the data set on Plasmopara viticola (setting [2]), the pest or weed control at 100 g/ha was ≥ 90%.

As to `CON=C(C1=NOCCN1)c1ccccc1Oc1ncnc(Oc2cccc(Cl)c2)c1F` [Example 5], in data set [1], the chromatographic logP amounted to 3.23. Also, the pest or weed control at 10 g/ha is 99% in the data set with Venturia inaequalis (read-out: Efficacy) and ≥ 90% in the data set on Venturia inaequalis (setting [3]). Besides, the pest or weed control at 100 g/ha in the data set with Plasmopara viticola (read-out: Efficacy) was 97%; in the data set with Plasmopara viticola (setting [2]) it was ≥ 90%.

`CON=C(C1=NOCCN1)c1ccccc1Oc1ncnc(Oc2ccc(Cl)cc2)c1F` [Example 6] yielded a chromatographic logP in data set [1] of 3.23. In addition, the values for the pest or weed control at 100 g/ha in the data set with Plasmopara viticola (read-out: Efficacy) and in the data set on Plasmopara viticola (setting [2]) were 97% and ≥ 90%, respectively. Take `C=Cc1ccccc1Oc1ncnc(Oc2ccccc2C(=NOC)C2=NOCCN2)c1F` [Example 7]: in data set [1], the chromatographic logP turned out to be 3.38. Besides, the pest or weed control at 10 g/ha in the data set with Venturia inaequalis (setting [3]) was ≥ 90%. Moreover, in the data set with Plasmopara viticola (setting [2]), the pest or weed control at 100 g/ha is ≥ 90%. Consider `CON=C(C1=NOCCN1)c1ccccc1Oc1ncnc(Oc2ccccc2C)c1F` [Example 8], for which the chromatographic logP in data set [1] stood at 3.01.

Compound `CON=C(C1=NOCCN1)c1ccccc1Oc1ncnc(Oc2ccccc2Br)c1F` [Example 9] had a chromatographic logP in data set [1] of 3.08. For the same compound, the pest or weed control at 100 g/ha in the data set with Plasmopara viticola (setting [2]) was ≥ 90%. On to `CON=C(C1=NOCCN1)c1ccccc1Oc1ncnc(Oc2ccccc2F)c1F` [Example 10], for which the chromatographic logP in data set [1] was 2.85. For the same compound, the pest or weed control at 10 g/ha in the data set on Venturia inaequalis (setting [3]) is ≥ 90%. Further, the pest or weed control at 100 g/ha with Plasmopara viticola (setting [2]) was ≥ 90%.

As for `CON=C(C1=NOCCN1)c1ccccc1Oc1ncnc(Oc2cccc(C(C)(C)C)c2)c1F` [Example 12], the chromatographic logP in data set [1] came to 3.96. In addition, the pest or weed control at 10 g/ha in the data set on Venturia inaequalis (setting [3]) is ≥ 90%. `CON=C(C1=NOCCN1)c1ccccc1Oc1ncnc(Oc2ccccc2OC)c1F` [Example 14] returned a chromatographic logP in data set [1] of 2.7. Besides, the pest or weed control at 100 g/ha with Plasmopara viticola (setting [2]) was ≥ 90%. The like results for `CON=C(C1=NOCCN1)c1ccccc1Oc1ncnc(Oc2ccc(C)cc2C)c1F` [Example 15] were, in that order, 3.38 and ≥ 90%. In data set [1], `CON=C(C1=NOCCN1)c1ccccc1Oc1ncnc(Oc2cc(C)ccc2C)c1F` [Example 16] returned a chromatographic logP of 3.35. The same measure, in the same setting: the value for `CON=C(C1=NOCCN1)c1ccccc1Oc1ncnc(Oc2cc(C)ccc2Cl)c1F` [Example 18] was 3.35. `CON=C(C1=NOCCN1)c1ccccc1Oc1ncnc(Oc2c(C)cccc2C)c1F` [Example 19] came in with a chromatographic logP in data set [1] of 3.29. Further, the pest or weed control at 100 g/ha with Plasmopara viticola (setting [2]) was ≥ 90%.

For the compound `CON=C(C1=NOCCN1)c1ccccc1Oc1ncnc(Oc2ccc(C)cc2)c1F` [Example 21], in data set [1], the chromatographic logP was 3.08. Besides, the pest or weed control at 10 g/ha in the data set with Venturia inaequalis (setting [3]) was ≥ 90%. Consider `CON=C(C1=NOCCN1)c1ccccc1Oc1ncnc(Oc2ccccc2C(C)(C)C)c1F` [Example 22], for which the chromatographic logP in data set [1] was found to be 3.84. Further, the pest or weed control at 10 g/ha with Venturia inaequalis (setting [3]) was ≥ 90%. In data set [1], `CON=C(C1=NOCCN1)c1ccccc1Oc1ncnc(Oc2cccc(OC)c2)c1F` [Example 23] showed a chromatographic logP of 2.8. The pest or weed control at 10 g/ha with Venturia inaequalis (setting [3]) is ≥ 90%. The like results for `CON=C(C1=NOCCN1)c1ccccc1Oc1ncnc(Oc2cccc(C(F)(F)F)c2)c1F` [Example 24] were, in that order, 3.39 and ≥ 90%.

Take `CON=C(C1=NOCCN1)c1ccccc1Oc1ncnc(Oc2ccc(OC(F)(F)F)cc2)c1F` [Example 25]: in data set [1], the chromatographic logP was found to be 3.54. On the same count and under the same terms, the value for `CON=C(C1=NOCCN1)c1ccccc1Oc1ncnc(Oc2ccc(C(F)(F)F)cc2Cl)c1F` [Example 26] was 3.76. With `CON=C(C1=NOCCN1)c1ccccc1Oc1ncnc(Oc2ccc(OC(F)(F)F)cc2Cl)c1F` [Example 27], in data set [1], the chromatographic logP is 3.86.

Regarding `CON=C(C1=NOCCN1)c1ccccc1Oc1ncnc(Oc2ccccc2C#N)c1F` [Example 29], the chromatographic logP in data set [1] was 2.56.

`CON=C(C1=NOCCN1)c1ccccc1Oc1ncnc(Oc2ccc(OC(F)(F)F)cc2C)c1F` [Example 30] yielded a chromatographic logP in data set [1] of 3.8. `CON=C(C1=NOCCN1)c1ccccc1Oc1ncnc(Oc2cccc3c2OC(C)(C)C3)c1F` [Example 31] came in with a chromatographic logP in data set [1] of 3.3. The pest or weed control at 10 g/ha in the data set on Venturia inaequalis (setting [3]) is ≥ 90%. Turning to `CON=C(C1=NOCCN1)c1ccccc1Oc1ncnc(Oc2ccc(SC(F)(F)F)cc2)c1F` [Example 32], the chromatographic logP in data set [1] is 3.84.

In the case of `CON=C(C1=NOCCN1)c1ccccc1Oc1ncnc(Oc2ccc(OC(F)(F)C(F)Cl)cc2)c1F` (stereo not shown) [Example 33], the chromatographic logP in data set [1] came to 3.56. For `CON=C(C1=NOCCN1)c1ccccc1Oc1ncnc(Oc2ccccc2)c1F` [Example 34], the chromatographic logP in data set [1] came to 2.76. For the same compound, in the data set with Plasmopara viticola (setting [2]), the pest or weed control at 100 g/ha is ≥ 90%. Compound `CON=C(C1=NOCCN1)c1ccccc1Oc1ncnc(Oc2ccc(C)nc2)c1F` [Example 35] yielded a chromatographic logP in data set [1] of 1.58. In turn, `CON=C(C1=NOCCN1)c1ccccc1Oc1ncnc(Oc2cccnc2Br)c1F` [Example 36] yielded a chromatographic logP in data set [1] of 2.43. The pest or weed control at 10 g/ha with Venturia inaequalis (setting [3]) is ≥ 90%. With `CON=C(C1=NOCCN1)c1ccccc1Oc1ncnc(Oc2cccnc2)c1F` [Example 37], the chromatographic logP in data set [1] turned out to be 1.73. In turn, `CON=C(C1=NOCCN1)c1ccccc1Oc1ncnc(Oc2cccc(Cl)n2)c1F` [Example 40] displayed a chromatographic logP in data set [1] of 2.62. In the data set with Venturia inaequalis (setting [3]), the pest or weed control at 10 g/ha is ≥ 90%. In data set [1], `CON=C(C1=NOCCN1)c1ccccc1Oc1ncnc(Oc2ccc(Cl)cn2)c1F` [Example 41] returned a chromatographic logP of 2.65. As to `CON=C(C)c1ccc(Oc2ncnc(Oc3ccccc3C(=NOC)C3=NOCCN3)c2F)c(C)c1` [Example 42], in data set [1], the chromatographic logP stood at 3.56. The compound `CON=C(C1=NOCCN1)c1ccccc1Oc1ncnc(OCc2ccccc2Cl)c1F` [Example 45] registered a chromatographic logP in data set [1] of 2.8. The same measure, in the same setting: the value for `CON=C(C1=NOCCN1)c1ccccc1Oc1ncnc(OCc2cccc(Cl)c2)c1F` [Example 46] was 3.44. In the case of `CON=C(C1=NOCCN1)c1ccccc1Oc1ncnc(Sc2ccccc2)c1F` [Example 48], in the data set on Venturia inaequalis (setting [3]), the pest or weed control at 10 g/ha is ≥ 90%. The pest or weed control at 100 g/ha in the data set on Plasmopara viticola (setting [2]) was ≥ 90%. With `CON=C(C1=NOCCN1)c1ccccc1Oc1ncnc(Sc2ccc(Br)cc2)c1F` [Example 49], the chromatographic logP in data set [1] is 3.69. For `CON=C(C1=NOCCN1)c1ccccc1Oc1ncnc(Sc2ccc(Cl)cc2)c1F` [Example 50], the chromatographic logP in data set [1] is 3.57. In addition, the pest or weed control at 100 g/ha with Plasmopara viticola (setting [2]) was ≥ 90%. As for `CON=C(C1=NOCCN1)c1ccccc1Oc1ncnc(Sc2ccc(C)cc2)c1F` [Example 51], the chromatographic logP in data set [1] came out at 3.45. Also, the pest or weed control at 100 g/ha in the data set with Plasmopara viticola (setting [2]) was ≥ 90%. In the case of `CON=C(C1=NOCCN1)c1ccccc1Oc1ncnc(Sc2cccc(Br)c2)c1F` [Example 52], the chromatographic logP in data set [1] is 3.66.

In the case of `CON=C(C1=NOCCN1)c1ccccc1Oc1ncnc(Sc2cccc(Cl)c2)c1F` [Example 53], in data set [1], the chromatographic logP was 3.56. The pest or weed control at 100 g/ha in the data set with Plasmopara viticola (setting [2]) was ≥ 90%. The compound `CON=C(C1=NOCCN1)c1ccccc1Oc1ncnc(Sc2ccc(Cl)c(C(F)(F)F)c2Cl)c1F` [Example 55] registered a chromatographic logP in data set [1] of 4.3. On the same count and under the same terms, the value for `CON=C(C1=NOCCN1)c1ccccc1Oc1ncnc(SC2CCCCC2)c1F` [Example 57] was 4.01. `CON=C(C1=NOCCN1)c1ccccc1Oc1ncnc(SCc2ccccc2)c1F` [Example 58]: the chromatographic logP in data set [1] was found to be 3.42. The same measure, in the same setting: the value for `CCSCc1ccccc1Oc1ncnc(Oc2ccccc2C(=NOC)C2=NOCCN2)c1F` [Example 60] was 3.4; that for `COCc1ccccc1Oc1ncnc(Oc2ccccc2C(=NOC)C2=NOCCN2)c1F` [Example 61] was 2.74.

In data set [1], `CCOCc1ccccc1Oc1ncnc(Oc2ccccc2C(=NOC)C2=NOCCN2)c1F` [Example 62] came in with a chromatographic logP of 3.04. In data set [1], `CON=C(C1=NOCCN1)c1ccccc1Oc1ncnc(Oc2ccccc2SC)c1F` [Example 63] yielded a chromatographic logP of 2.95. In turn, `CCSc1ccccc1Oc1ncnc(Oc2ccccc2C(=NOC)C2=NOCCN2)c1F` [Example 64] registered a chromatographic logP in data set [1] of 3.26.

On to `CON=C(C1=NOCCN1)c1ccccc1Oc1ncnc(F)c1F` [IV-1, 3-{1-[2-(4,5-difluoropyrimid-6-yloxy)-phenyl]-1-(methoximino)-methyl}-5,6-dihydro-4H-1,2,4-oxadiazine], for which the chromatographic logP in data set [1] was found to be 1.97.

For the compound `CON=C1C(=NOCCOS(C)(=O)=O)Oc2ccccc21` [VI-1, benzofuran-2,3-dione 2-[O-(2-methylsulphonyloxy-ethyl)-oxime]3-(O-methyl-oxime)], the chromatographic logP in data set [1] was found to be 2.39. `CON=C1C(=NOCCO)Oc2ccccc21` [benzofuran-2,3-dione 2-[O-(2-hydroxy-ethyl)-oxime] 3-(O-methyl-oxime)]: in data set [1], the chromatographic logP was found to be 1.65; the logP (usually a log measure of how a compound divides between an organic and an aqueous phase) amounted to 1.79.
